For 20 compounds, IC50 results are on record in patent US9296757B2, “Substituted benzothienopyrimidines” (BAYER PHARMA AKTIENGESELLSCHAFT, priority 2012, dated 2016).

The target of the assay is human full-length MKNK1 (Homo sapiens (Human), UniProt Q9BUB5, T344D). Put plainly: MKNK1 kinase high ATP assay (TR-FRET). Particulars: high ATP (2 mM final), 15 min preincubation with enzyme. Type of assay: biochemical. On the procedure: MKNK1-inhibitory activity at high ATP of compounds of the present invention after their preincubation with MKNK1 was quantified employing the TR-FRET-based MKNK1 high ATP assay as described in the following paragraphs.
Sequence of human full-length MKNK1 (Q9BUB5 other isoform, or with tags, fused parts or gaps T344D): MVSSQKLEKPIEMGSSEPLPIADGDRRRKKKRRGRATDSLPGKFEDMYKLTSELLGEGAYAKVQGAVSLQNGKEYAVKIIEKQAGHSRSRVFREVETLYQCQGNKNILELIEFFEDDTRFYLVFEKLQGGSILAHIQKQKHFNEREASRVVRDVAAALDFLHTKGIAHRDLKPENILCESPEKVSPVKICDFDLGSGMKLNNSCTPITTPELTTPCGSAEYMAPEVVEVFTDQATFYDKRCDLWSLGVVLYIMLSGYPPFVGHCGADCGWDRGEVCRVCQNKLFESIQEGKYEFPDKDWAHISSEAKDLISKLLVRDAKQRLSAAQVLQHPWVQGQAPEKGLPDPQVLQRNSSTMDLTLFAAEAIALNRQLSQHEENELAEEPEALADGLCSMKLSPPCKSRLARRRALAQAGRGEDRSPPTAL
A recombinant fusion protein of Glutathione-S-Transferase (GST, N-terminally) and human full-length MKNK1 (amino acids 1-424 and T344D of accession number BAA 19885.1), expressed in insect cells using baculovirus expression system and purified via glutathione sepharose affinity chromatography, was purchased from Carna Biosciences (product no 02-145) and used as enzyme. As substrate for the kinase reaction the biotinylated peptide biotin-Ahx-IKKRKLTRRKSLKG (C-terminus in amide form) was used, which can be purchased e.g. from the company Biosyntan (Berlin-Buch, Germany).
For the assay 50 nL of a 100 fold concentrated solution of the test compound in DMSO was pipetted into a black low volume 384 well microtiter plate (Greiner Bio-One, Frickenhausen, Germany), 2 μL of a solution of MKNK1 in aqueous assay buffer [50 mM HEPES pH 7.5, 5 mM MgCl2, 1.0 mM dithiothreitol, 0.005% (v/v) Nonidet-P40 (Sigma)] was added and the mixture was incubated for 15 min at 22° C. to allow pre-binding of the test compounds to the enzyme before the start of the kinase reaction. Then the kinase reaction was started by the addition of 3 μL of a solution of adenosine-tri-phosphate (ATP, 3.3 mM=>final conc. in the 5 μL assay volume is 2 mM) and substrate (0.1 μM=>final conc. in the 5 μL assay volume is 0.06 μM) in assay buffer and the resulting mixture was incubated for a reaction time of 30 min at 22° C. The concentration of MKNK1 was adjusted depending of the activity of the enzyme lot and was chosen appropriate to have the assay in the linear range, typical concentrations were in the range of 0.003 μg/mL. The reaction was stopped by the addition of 5 μL of a solution of TR-FRET detection reagents (5 nM streptavidine-XL665 [Cisbio Bioassays, Codolet, France] and 1 nM anti-ribosomal protein S6 (pSer236)-antibody from Invitrogen [#44921G] and 1 nM LANCE EU-W1024 labeled ProteinG [Perkin-Elmer, product no. AD0071]) in an aqueous EDTA-solution (100 mM EDTA, 0.1% (w/v) bovine serum albumin in 50 mM HEPES pH 7.5).
The resulting mixture was incubated for 1 h at 22° C. to allow the formation of complex between the phosphorylated biotinylated peptide and the detection reagents. Subsequently the amount of phosphorylated substrate was evaluated by measurement of the resonance energy transfer from the Eu-chelate to the streptavidine-XL. Therefore, the fluorescence emissions at 620 nm and 665 nm after excitation at 350 nm were measured in a TR-FRET reader, e.g. a Rubystar (BMG Labtechnologies, Offenburg, Germany) or a Viewlux (Perkin-Elmer). The ratio of the emissions at 665 nm and at […] was taken as the measure for the amount of phosphorylated substrate. The data were normalised (enzyme reaction without inhibitor=0% inhibition, all other assay components but no enzyme=100% inhibition).
A word on the IC50: it is the concentration that inhibits the measured activity by half. Read a low IC50 as greater potency in that assay. `O=C(NCC1CCc2c(sc3ncnc(Nc4ccc5[nH]c(=O)sc5c4)c23)C1)[C@@H](O)Cc1ccccc1` (mixture of isomers) [Example 23, (2R)-2-Hydroxy-N-({(7RS)-4-[(2-oxo-2,3-dihydro-1,3-benzothiazol-6-yl)amino]-5,6,7,8-tetrahydro[1]benzothieno[2,3-d]pyrimidin-7-yl}methyl)-3-phenylpropanamide]: the half-inhibitory concentration (IC50) was 43 nM. This counts as double-digit nanomolar.

`CC(C)(C)OC(=O)N[C@@H](CCO)C(=O)NCC1CCc2c(sc3ncnc(Nc4ccc5[nH]c(=O)sc5c4)c23)C1` (mixture of isomers) [Example 27, tert-Butyl {(2R)-4-hydroxy-1-oxo-1-[({(7RS)-4-[(2-oxo-2,3-dihydro-1,3-benzothiazol-6-yl)amino]-5,6,7,8-tetrahydro[1]benzothieno[2,3-d]pyrimidin-7-yl}methyl)amino]butan-2-yl}carbamate] yielded an IC50 of 100 nM. To `N[C@@H](CCO)C(=O)NCC1CCc2c(sc3ncnc(Nc4ccc5[nH]c(=O)sc5c4)c23)C1` (mixture of isomers) [Example 32, N-({4-[(2-Oxo-2,3-dihydro-1,3-benzothiazol-6-yl)amino]-5,6,7,8-tetrahydro[1]benzothieno[2,3-d]pyrimidin-7-(RS)-yl}methyl)-L-homoserinamide] belongs 92 nM; to `CCOC(=O)C1CCc2c(sc3ncnc(Nc4ccc5[nH]c(=O)sc5c4)c23)C1` (racemic) [Example 1, (RS)-Ethyl 4-[(2-oxo-2,3-dihydro-1,3-benzothiazol-6-yl)amino]-5,6,7,8-tetrahydro[1]benzothieno[2,3-d]pyrimidine-7-carboxylate], 47 nM; to `O=C(O)C1CCc2c(sc3ncnc(Nc4ccc5[nH]c(=O)sc5c4)c23)C1` (racemic) [Example 2, (RS)-4-[(2-Oxo-2,3-dihydro-1,3-benzothiazol-6-yl)amino]-5,6,7,8-tetrahydro[1]benzothieno[2,3-d]pyrimidine-7-carboxylic acid], 108 nM. To `CCNC(=O)C1CCc2c(sc3ncnc(Nc4ccc5[nH]c(=O)sc5c4)c23)C1` (racemic) [Example 3, (RS)—N-Ethyl-4-[(2-oxo-2,3-dihydro-1,3-benzothiazol-6-yl)amino]-5,6,7,8-tetrahydro[1]benzothieno[2,3-d]pyrimidine-7-carboxamide] belongs 39 nM; to `O=C(NC1CC1)C1CCc2c(sc3ncnc(Nc4ccc5[nH]c(=O)sc5c4)c23)C1` (racemic) [Example 4, (RS)—N-Cyclopropyl-4-[(2-oxo-2,3-dihydro-1,3-benzothiazol-6-yl)amino]-5,6,7,8-tetrahydro[1]benzothieno[2,3-d]pyrimidine-7-carboxamide], 57 nM; to `CC(C)NC(=O)C1CCc2c(sc3ncnc(Nc4ccc5[nH]c(=O)sc5c4)c23)C1` (racemic) [Example 5, (RS)—N-Isopropyl-4-[(2-oxo-2,3-dihydro-1,3-benzothiazol-6-yl)amino]-5,6,7,8-tetrahydro[1]benzothieno[2,3-d]pyrimidine-7-carboxamide], 36 nM.

`CC(C)CNC(=O)C1CCc2c(sc3ncnc(Nc4ccc5[nH]c(=O)sc5c4)c23)C1` (racemic) [Example 6, (RS)—N-Isobutyl-4-[(2-oxo-2,3-dihydro-1,3-benzothiazol-6-yl)amino]-5,6,7,8-tetrahydro[1]benzothieno[2,3-d]pyrimidine-7-carboxamide]: 40 nM corresponded to half-maximal inhibition (IC50). The IC50 values of the last two compounds are within 1.5-fold of each other. Next, `O=C(NCCC(F)(F)F)C1CCc2c(sc3ncnc(Nc4ccc5[nH]c(=O)sc5c4)c23)C1` (racemic) [Example 7, (RS)-4-[(2-Oxo-2,3-dihydro-1,3-benzothiazol-6-yl)amino]-N-(3,3,3-trifluoropropyl)-5,6,7,8-tetrahydro[1]benzothieno[2,3-d]pyrimidine-7-carboxamide]: 42 nM; `O=C(Nc1ccccc1)C1CCc2c(sc3ncnc(Nc4ccc5[nH]c(=O)sc5c4)c23)C1` (racemic) [Example 8, (RS)-4-[(2-Oxo-2,3-dihydro-1,3-benzothiazol-6-yl)amino]-N-phenyl-5,6,7,8-tetrahydro[1]benzothieno[2,3-d]pyrimidine-7-carboxamide]: 33 nM; `O=C(NCc1ccccc1)C1CCc2c(sc3ncnc(Nc4ccc5[nH]c(=O)sc5c4)c23)C1` (racemic) [Example 9, (RS)—N-Benzyl-4-[(2-oxo-2,3-dihydro-1,3-benzothiazol-6-yl)amino]-5,6,7,8-tetrahydro[1]benzothieno[2,3-d]pyrimidine-7-carboxamide]: 9 nM.

In turn, `O=C(NCc1cccc(C(F)(F)F)c1)C1CCc2c(sc3ncnc(Nc4ccc5[nH]c(=O)sc5c4)c23)C1` (racemic) [Example 10, (RS)-4-[(2-Oxo-2,3-dihydro-1,3-benzothiazol-6-yl)amino]-N-[3-(trifluoromethyl)benzyl]-5,6,7,8-tetrahydro[1]benzothieno[2,3-d]pyrimidine-7-carboxamide] returned a concentration for half-maximal inhibition (IC50) of 11 nM. To `CNC(=O)C1CCc2c(sc3ncnc(Nc4ccc5[nH]c(=O)sc5c4)c23)C1` (racemic) [Example 11, (RS)—N-Methyl-4-[(2-oxo-2,3-dihydro-1,3-benzothiazol-6-yl)amino]-5,6,7,8-tetrahydro[1]benzothieno[2,3-d]pyrimidine-7-carboxamide] belongs 91 nM; to `O=C(NCC1CC1)C1CCc2c(sc3ncnc(Nc4ccc5[nH]c(=O)sc5c4)c23)C1` (racemic) [Example 12, (RS)—N-(Cyclopropylmethyl)-4-[(2-oxo-2,3-dihydro-1,3-benzothiazol-6-yl)amino]-5,6,7,8-tetrahydro[1]benzothieno[2,3-d]pyrimidine-7-carboxamide], 48 nM; to `CN(C)C(=O)C1CCc2c(sc3ncnc(Nc4ccc5[nH]c(=O)sc5c4)c23)C1` (racemic) [Example 13, (RS)—N,N-Dimethyl-4-[(2-oxo-2,3-dihydro-1,3-benzothiazol-6-yl)amino]-5,6,7,8-tetrahydro[1]benzothieno[2,3-d]pyrimidine-7-carboxamide], 41 nM. To `O=C(NCc1cccc(F)c1)C1CCc2c(sc3ncnc(Nc4ccc5[nH]c(=O)sc5c4)c23)C1` (racemic) [Example 14, (RS)—N-(3-Fluorobenzyl)-4-[(2-oxo-2,3-dihydro-1,3-benzothiazol-6-yl)amino]-5,6,7,8-tetrahydro[1]benzothieno[2,3-d]pyrimidine-7-carboxamide] belongs 25 nM; to `O=C(NCC(F)(F)F)C1CCc2c(sc3ncnc(Nc4ccc5[nH]c(=O)sc5c4)c23)C1` (racemic) [Example 15, (RS)-4-[(2-oxo-2,3-dihydro-1,3-benzothiazol-6-yl)amino]-N-(2,2,2-trifluoroethyl)-5,6,7,8-tetrahydro[1]benzothieno[2,3-d]pyrimidine-7-carboxamide], 85 nM. Next, `COCC1(OC)CCc2c(sc3ncnc(Nc4ccc5[nH]c(=O)sc5c4)c23)C1` (racemic) [Example 16, (RS)-6-{[7-Methoxy-7-(methoxymethyl)-5,6,7,8-tetrahydro[1]benzothieno[2,3-d]pyrimidin-4-yl]amino}-1,3-benzothiazol-2(3H)-one]: 304 nM; `CC1CCc2c(sc3ncnc(Nc4ccc5[nH]c(=O)sc5c4)c23)C1` (racemic) [Example 17, (RS)-6-[(7-Methyl-5,6,7,8-tetrahydro[1]benzothieno[2,3-d]pyrimidin-4-yl)amino]-1,3-benzothiazol-2(3H)-one]: 128 nM.
